Source: patent US7608619B2, “Substituted oxazole compounds with analgesic activity” (Gruenenthal GmbH, priority 2005, dated 2009)

Target: T1, human μ-opiate receptor (Homo sapiens, UniProt P35372)
T1 construct: purchased Nen company, Zaventem, Belgium RB-HOM; host or cells: CHO-K1 cells (membrane preparation)
Assay: Affinity for the human μ-opiate receptor ([3H]-naloxone displacement, SPA, CHO-K1 membrane preparation)
Settings: test substance 1 μmole/l; displacement of 1 nmole/l [3H]-naloxone; percentage inhibition of the specific binding; read-out: μ-opioid receptor, % inhibition [1 μM]
Procedure: Method for Determining the Affinity for the Human μ-Opiate Receptor
The receptor affinity for the human μ-opiate receptor is determined in a homogeneous batch in microtiter plates. For this purpose dilution series of the substances to be tested are incubated for 90 minutes at room temperature with a receptor membrane preparation (15-40 μg protein/250 μl incubation batch) of CHO-K1 cells, which express the human μ-opiate receptor (RB-HOM receptor membrane preparation from the Nen company, Zaventem, Belgium), in the presence of 1 nmole/l of the radioactive ligand [^3H]-naloxone (NET719, Nen company, Zaventem, Belgium) and 1 mg WGA-SPA beads (wheat germ agglutinin SPA beads from Amersham/Pharmacia, Freiburg, Germany) in a total volume of 250 μl. 50 mmole/l of Tris-HCl supplemented with 0.05% sodium azide and with 0.06% bovine serum albumin is used as incubation buffer. In order to determine the non-specific binding, 25 μmole/l of naloxone is additionally added. After the end of the 90 minutes' incubation time the microtiter plates are centrifuged for 20 minutes at 1000 g and the radioactivity is measured in a beta counter (Microbeta-Trilux, PerkinElmer Wallac, Freiburg, Germany). The percentage displacement of the radioactive ligand from its binding to the human μ-opiate receptor at a concentration of the test substances of 1 μmole/l is determined and is given as percentage inhibition of the specific binding.

T1 sequence (P35372 whole entry): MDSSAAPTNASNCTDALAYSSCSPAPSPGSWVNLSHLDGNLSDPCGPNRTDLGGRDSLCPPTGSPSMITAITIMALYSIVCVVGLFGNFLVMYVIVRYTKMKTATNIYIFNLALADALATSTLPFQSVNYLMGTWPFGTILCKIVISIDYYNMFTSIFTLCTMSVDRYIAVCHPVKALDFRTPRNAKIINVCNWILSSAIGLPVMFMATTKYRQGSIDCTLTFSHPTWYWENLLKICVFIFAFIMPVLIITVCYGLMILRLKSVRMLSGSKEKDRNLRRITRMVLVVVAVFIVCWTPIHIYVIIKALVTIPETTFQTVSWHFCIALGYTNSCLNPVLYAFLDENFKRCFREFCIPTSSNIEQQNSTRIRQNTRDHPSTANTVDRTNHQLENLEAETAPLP

SMILES	inhibition at 1 µM [%]
CCN(CC)C(CC1CCC(C(c2ccc(F)cc2)N(C)C)CC1)c1nc(Cc2ccccc2)c(N2CCN(Cc3ccccc3)CC2)o1 (stereo not shown) [compound 68, (1-[4-benzyl-5-(4-benzyl-piperazin-1-yl)-oxazol-2-yl]-2-{4-[dimethylamino-(4-fluorophenyl)-methyl]-cyclohexyl}-ethyl)-diethylamine]	60
CCN(CC)C(CC1CCC(C(c2ccc(F)cc2)N(C)C)CC1)c1nc(Cc2ccccc2)c(N2CCC(C)CC2)o1 (stereo not shown) [compound 69, (1-[4-benzyl-5-(4-methylpiperidin-1-yl)-oxazol-2-yl]-2-{4-[dimethylamino-(4-fluorophenyl)-methyl]-cyclohexyl}-ethyl)-diethylamine]	82
CCN(CC)C(CC1CCC(C(c2ccc(F)cc2)N(C)C)CC1)c1nc(Cc2ccccc2)c(N(C)Cc2ccccc2)o1 (stereo not shown) [compound 70, Benzyl-[4-benzyl-2-(1-diethylamino-2-{4-[dimethylamino-(4-fluorophenyl)-methyl]-cyclohexyl}-ethyl)-oxazol-5-yl]-methylamine]	60
CC1CCN(c2oc(C(CC3CCC(C(c4ccc(F)cc4)N(C)C)CC3)N3CCN(Cc4ccccc4)CC3)nc2Cc2ccccc2)CC1 (stereo not shown) [compound 71, [{4-[2-[4-benzyl-5-(4-methylpiperidin-1-yl)-oxazol-2-yl]-2-(4-benzyl-piperazin-1-yl)-ethyl]-cyclohexyl}-(4-fluorophenyl)-methyl]-dimethylamine]	67
CN(C)C(c1cccs1)C1CCC(CC(c2nc(Cc3ccccc3)c(N3CCC(Cc4ccccc4)CC3)o2)N2CCCCC2)CC1 (stereo not shown) [compound 72, [(4-{2-[4-benzyl-5-(4-benzyl-piperidin-1-yl)-oxazol-2-yl]-2-piperidin-1-yl-ethyl}-cyclohexyl)-thiophen-2-yl-methyl]-dimethylamine]	69
CN(C)C(c1cccs1)C1CCC(CC(c2nc(Cc3ccccc3)c(N3CCN(Cc4ccccc4)CC3)o2)N2CCCCC2)CC1 (stereo not shown) [compound 73, [(4-{2-[4-benzyl-5-(4-benzyl-piperazin-1-yl)-oxazol-2-yl]-2-piperidin-1-yl-ethyl}-cyclohexyl)-thiophen-2-yl-methyl]-dimethylamine]	94
CC1CCN(c2oc(C(CC3CCC(C(c4cccs4)N(C)C)CC3)N3CCCCC3)nc2Cc2ccccc2)CC1 (stereo not shown) [compound 74, [(4-{2-[4-benzyl-5-(4-methylpiperidin-1-yl)-oxazol-2-yl]-2-piperidin-1-yl-ethyl}-cyclohexyl)-thiophen-2-yl-methyl]-dimethylamine]	79
CN(Cc1ccccc1)c1oc(C(CC2CCC(C(c3cccs3)N(C)C)CC2)N2CCCCC2)nc1Cc1ccccc1 (stereo not shown) [compound 75, Benzyl-(4-benzyl-2-{2-[4-(dimethylaminothiophen-2-yl-methyl)-cyclohexyl]-1-piperidin-1-yl-ethyl}-oxazol-5-yl)-methylamine]	90
CN(C)C(c1cccs1)C1CCC(CC(c2nc(Cc3ccccc3)c(N3CCN(c4ccccc4)CC3)o2)N2CCCCC2)CC1 (stereo not shown) [compound 76, [(4-{2-[4-benzyl-5-(4-phenyl-piperazin-1-yl)-oxazol-2-yl]-2-piperidin-1-yl-ethyl}-cyclohexyl)-thiophen-2-yl-methyl]-dimethylamine]	94
CCN(CC)C(CC1CCC(C(c2cccs2)N(C)C)CC1)c1nc(Cc2ccccc2)c(N2CCC(Cc3ccccc3)CC2)o1 (stereo not shown) [compound 77, {1-[4-benzyl-5-(4-benzyl-piperidin-1-yl)-oxazol-2-yl]-2-[4-(dimethylamino-thiophen-2-yl-methyl)-cyclohexyl]-ethyl}-diethylamine]	91
CCN(CC)C(CC1CCC(C(c2cccs2)N(C)C)CC1)c1nc(Cc2ccccc2)c(N2CCN(Cc3ccccc3)CC2)o1 (stereo not shown) [compound 78, {1-[4-benzyl-5-(4-benzyl-piperazin-1-yl)-oxazol-2-yl]-2-[4-(dimethylamino-thiophen-2-yl-methyl)-cyclohexyl]-ethyl}-diethylamine]	100
CCN(CC)C(CC1CCC(C(c2cccs2)N(C)C)CC1)c1nc(Cc2ccccc2)c(N2CCC(C)CC2)o1 (stereo not shown) [compound 79, {1-[4-benzyl-5-(4-methylpiperidin-1-yl)-oxazol-2-yl]-2-[4-(dimethylamino-thiophen-2-yl-methyl)-cyclohexyl]-ethyl}-diethylamine]	97
CCN(CC)C(CC1CCC(C(c2cccs2)N(C)C)CC1)c1nc(Cc2ccccc2)c(N(C)Cc2ccccc2)o1 (stereo not shown) [compound 80, Benzyl-(4-benzyl-2-{1-diethylamino-2-[4-(dimethylaminothiophen-2-yl-methyl)-cyclohexyl]-ethyl)-oxazol-5-yl)-methylamine]	93
CN(C)C(c1cccs1)C1CCC(CC(c2nc(Cc3ccccc3)c(N3CCC(Cc4ccccc4)CC3)o2)N2CCN(Cc3ccccc3)CC2)CC1 (stereo not shown) [compound 81, ({4-[2-[4-benzyl-5-(4-benzyl-piperidin-1-yl)-oxazol-2-yl]-2-(4-benzyl-piperazin-1-yl)-ethyl]-cyclohexyl}-thiophen-2-yl-methyl)-dimethylamine]	81
CN(C)C(c1cccs1)C1CCC(CC(c2nc(Cc3ccccc3)c(N3CCN(Cc4ccccc4)CC3)o2)N2CCN(Cc3ccccc3)CC2)CC1 (stereo not shown) [compound 82, ({4-[2-[4-benzyl-5-(4-benzylpiperazin-1-yl)-oxazol-2-yl]-2-(4-benzyl-piperazin-1-yl)-ethyl]-cyclohexyl}-thiophen-2-yl-methyl)-dimethylamine]	83
CC1CCN(c2oc(C(CC3CCC(C(c4cccs4)N(C)C)CC3)N3CCN(Cc4ccccc4)CC3)nc2Cc2ccccc2)CC1 (stereo not shown) [compound 83, ({4-[2-[4-benzyl-5-(4-methylpiperidin-1-yl)-oxazol-2-yl]-2-(4-benzyl-piperazin-1-yl)-ethyl]-cyclohexyl}-thiophen-2-yl-methyl)-dimethylamine]	97
CN(Cc1ccccc1)c1oc(C(CC2CCC(C(c3cccs3)N(C)C)CC2)N2CCN(Cc3ccccc3)CC2)nc1Cc1ccccc1 (stereo not shown) [compound 84, Benzyl-(4-benzyl-2-{1-(4-benzyl-piperazin-1-yl)-2-[4-(dimethylamino-thiophen-2-yl-methyl)-cyclohexyl]-ethyl}-oxazol-5-yl)-methylamine]	88
CN(C)C(c1cccs1)C1CCC(CC(c2nc(Cc3ccccc3)c(N3CCN(c4ccccc4)CC3)o2)N2CCN(Cc3ccccc3)CC2)CC1 (stereo not shown) [compound 85, ({4-[2-[4-benzyl-5-(4-phenyl-piperazin-1-yl)-oxazol-2-yl]-2-(4-benzyl-piperazin-1-yl)-ethyl]-cyclohexyl}-thiophen-2-yl-methyl)-dimethylamine]	91
CN(CCc1ccccc1)c1oc(C(CC2CCC(C(c3ccc(Cl)cc3)N(C)C)CC2)N2CCCCC2)nc1Cc1ccccc1 (stereo not shown) [compound 86, [4-benzyl-2-(2-{4-[(4-chlorophenyl)-dimethylaminomethyl]-cyclohexyl}-1-piperidin-1-yl-ethyl)-oxazol-5-yl]-methylphenethylamine]	63
CCN(CC)c1oc(C(CC2CCC(C(c3ccc(Cl)cc3)N(C)C)CC2)N2CCCCC2)nc1Cc1ccccc1 (stereo not shown) [compound 87, [4-benzyl-2-(2-{4-[(4-chlorophenyl)-dimethylaminomethyl]-cyclohexyl}-1-piperidin-1-yl-ethyl)-oxazol-5-yl]-diethylamine]	64
CCN(CC)C(CC1CCC(C(c2ccc(Cl)cc2)N(C)C)CC1)c1nc(Cc2ccccc2)c(N2CC(C)CC(C)C2)o1 (stereo not shown) [compound 88, (1-[4-benzyl-5-(3,5-dimethylpiperidin-1-yl)-oxazol-2-yl]-2-{4-[(4-chlorophenyl)-dimethylaminomethyl]-cyclohexyl}-ethyl)-diethylamine]	79
CCN(CC)C(CC1CCC(C(c2ccc(Cl)cc2)N(C)C)CC1)c1nc(Cc2ccccc2)c(N(C)CCc2ccccc2)o1 (stereo not shown) [compound 89, [4-benzyl-2-(2-{4-[(4-chlorophenyl)-dimethylaminomethyl]-cyclohexyl}-1-diethylaminoethyl)-oxazol-5-yl]-methyl-phenethylamine]	87
CCN(CC)c1oc(C(CC2CCC(C(c3ccc(Cl)cc3)N(C)C)CC2)N(CC)CC)nc1Cc1ccccc1 (stereo not shown) [compound 90, [4-benzyl-2-(2-{4-[(4-chlorophenyl)-dimethylaminomethyl]-cyclohexyl}-1-diethylaminoethyl)-oxazol-5-yl]-diethylamine]	89
CCN(CC)C(CC1CCC(C(c2ccc(Cl)cc2)N(C)C)CC1)c1nc(Cc2ccccc2)c(N2CCSCC2)o1 (stereo not shown) [compound 91, (1-(4-benzyl-5-thiomorpholin-4-yl-oxazol-2-yl)-2-{4-[(4-chlorophenyl)-dimethylaminomethyl]-cyclohexyl}-ethyl)-diethylamine]	75
CN(C)C(c1ccc(Cl)cc1)C1CCC(CC(c2nc(Cc3ccccc3)c(N3CCSCC3)o2)N(C)c2ccccc2)CC1 (stereo not shown) [compound 92, (1-(4-benzyl-5-thiomorpholin-4-yl-oxazol-2-yl)-2-{4-[(4-chlorophenyl)-dimethylaminomethyl]-cyclohexyl}-ethyl)-methylphenylamine]	87
